In US9724352B2, “Pyrrolo[2,1-F[1,2,4]triazine compounds, preparation methods and applications thereof” (Shanghai Institute of Materia Medica, Chinese Academy of …, priority 2012, dated 2017):
Each block holds one molecule with its values, some of them ahead of it.

What was measured:
[1] = test system: human rhabdomyosarcoma Rh30 cells; assay: Proliferation of Rh30 cells (sulforhodamine B); type: cell-based; conditions: for IC50: Homo sapiens, Rh30, 72 h, read-out: IC50 against proliferation of Rh30 cells; for inhibitory activity on Rh30 cell proliferation (in words): 72 h
Method: Rh30 cells were seeded in a 96-well plate at 3000 cells/well. After the cells adhered, tested compounds at concentration of 10, 3, 1, 0.3, or 0.1 μM were added, and incubated for 72 h. The culture media were discarded and cells were fixed with trichloroacetic acid. After washed with distilled water for five times and dried, sulfonylrhodamine B was added. After washed with 1% glacial acetic acid for five times and dried, trihydroxymethylaminomethane buffer was added. OD value was measured by using a microplate reader at a wavelength of 560 nm.

[2] = test system: human neuroglioma U87-MG xenograft; assay: Growth of U87-MG xenograft subcutaneously transplanted in nude mouse; type: in vivo; conditions: for growth of subcutaneously transplanted U87MG xenograft (in words): p.o. once a day for three weeks
Method: Well-developed tumors in nude mice were cut into 1.5 mm3 fragments and transplanted s.c. into the right flank of nude mice under sterile conditions. The diameters of subcutaneously transplanted tumours in nude mice were measured with a vernier calipe. […] Control groups were given the same amount of blank solvent, and treatment groups received tested compounds (p.o.). Compounds were administrated once a day for three weeks. Throughout the experiment, the sizes of the tumours were measured twice per week and meanwile the body weights of mice were weighed. The tumour volume (TV) was calculated as follows: TV=½×a×b2, wherein a and b represent the length and width, respectively. The individual relative tumour volume (RTV) was calculated as follows: RTV=Vt/V0, where V0 is the volume at the beginning of the treatment and Vt is the volume measured every time. Evaluation index of antitumor activity was relative tumor proliferation rate T/C (%), the calculation formula of which was as follows: T/C (%)=(TRTV/CRTV)×100%, TRTV:RTV of treatment group; CRTV:RTV of negative control group.

Compound: CN(C)Cc1cc2c(N3CCOCC3)nc(-c3ccc(NC(=O)Nc4ccc(Cl)cc4)cc3)nn2c1 [Compound I-5, 1-[4-(6-dimethylaminomethyl-4-morpholinopyrrolo[2,1-f][1,2,4]triazin-2-yl)phenyl]-3-(p-chlorophenyl)urea]
IC50 [1]: 1240 nM

Compound: CN(C)Cc1cc2c(N3CCOCC3)nc(-c3ccc(NC(=O)Nc4ccc(F)cc4)cc3)nn2c1 [Compound I-4, 1-[4-(6-dimethylaminomethyl-4-morpholinopyrrolo[2,1-f][1,2,4]triazin-2-yl)phenyl]-3-(p-fluorophenyl)urea]
IC50 [1]: 400 nM

Compound: CCNC(=O)Nc1cc(C(F)(F)F)c(-c2nc(N3CCOCC3)c3cc(CN4CCN(S(C)(=O)=O)CC4)cn3n2)cn1.CS(=O)(=O)O [I-30 (mesylate), 1-Ethyl-3-(5-(6-((4-(methylsulfonyl)piperazin-1-yl)methyl)-4-morpholinopyrrolo[2,1-f] [1,2,4]triazin-2-yl)-4-(trifluoromethyl)pyridin-2-yl)urea mesylate]
Relative tumor proliferation rate T/C ([2]; 50 mg/kg p.o. once a day, d0): 100.00%
Relative tumor proliferation rate T/C ([2]; 50 mg/kg p.o. once a day, d3): 67.89%
Relative tumor proliferation rate T/C ([2]; 50 mg/kg p.o. once a day, d7): 54.35%
Relative tumor proliferation rate T/C ([2]; 50 mg/kg p.o. once a day, d10): 60.45%
Relative tumor proliferation rate T/C ([2]; 50 mg/kg p.o. once a day, d14): 42.46%
Relative tumor proliferation rate T/C ([2]; 50 mg/kg p.o. once a day, d17): 41.64%
Relative tumor proliferation rate T/C ([2]; 50 mg/kg p.o. once a day, d21): 37.26%
growth of subcutaneously transplanted U87MG xenograft (in words) [2]: significant inhibitory effects

Compound: CN(C)Cc1cc2c(N3CCOCC3)nc(-c3ccc(NC(=O)Nc4cccc(Cl)c4)cc3)nn2c1 [Compound I-6, 1-(3-chlorophenyl)-3-(4-(6-((dimethylamino)methyl)-4-morpholinopyrrolo[2,1-f][1,2,4]triazin-2-yl)phenyl)urea]
IC50 [1]: 1360 nM

Compound: CS(=O)(=O)N1CCN(Cc2cc3c(N4CCOCC4)nc(-c4cnc(NC(=O)Oc5ccccc5)cc4C(F)(F)F)nn3c2)CC1 [Compound I-31, Phenyl (5-(6-((4-(methylsulfonyl)piperazin-1-yl)methyl)-4-morpholinopyrrolo[2,1-f][1,2,4]triazin-2-yl)-4-(trifluoromethyl)pyridin-2-yl)carbamate]
IC50 [1]: 5060 nM

Compound: COC(=O)Nc1cc(C(F)(F)F)c(-c2nc(N3CCOCC3)c3cc(CN4CCN(S(C)(=O)=O)CC4)cn3n2)cn1.CS(=O)(=O)O [I-33 (mesylate), Methyl (5-(6-((4-(methylsulfonyl)piperazin-1-yl)methyl)-4-morpholinopyrrolo[2,1-f][1,2,4]triazin-2-yl)-4-(trifluoromethyl)pyridin-2-yl)carbamate mesylate]
Relative tumor proliferation rate T/C ([2]; 20 mg/kg p.o. once a day, d0): 100.00%
Relative tumor proliferation rate T/C ([2]; 20 mg/kg p.o. once a day, d3): 84.69%
Relative tumor proliferation rate T/C ([2]; 20 mg/kg p.o. once a day, d7): 65.90%
Relative tumor proliferation rate T/C ([2]; 20 mg/kg p.o. once a day, d10): 55.24%
Relative tumor proliferation rate T/C ([2]; 20 mg/kg p.o. once a day, d14): 37.48%
Relative tumor proliferation rate T/C ([2]; 20 mg/kg p.o. once a day, d17): 31.92%
Relative tumor proliferation rate T/C ([2]; 20 mg/kg p.o. once a day, d21): 32.61%
Relative tumor proliferation rate T/C ([2]; 50 mg/kg p.o. once a day, d0): 100.00%
Relative tumor proliferation rate T/C ([2]; 50 mg/kg p.o. once a day, d3): 82.76%
Relative tumor proliferation rate T/C ([2]; 50 mg/kg p.o. once a day, d7): 59.61%
Relative tumor proliferation rate T/C ([2]; 50 mg/kg p.o. once a day, d10): 54.74%
Relative tumor proliferation rate T/C ([2]; 50 mg/kg p.o. once a day, d14): 36.93%
Relative tumor proliferation rate T/C ([2]; 50 mg/kg p.o. once a day, d17): 29.89%
Relative tumor proliferation rate T/C ([2]; 50 mg/kg p.o. once a day, d21): 25.65%
growth of subcutaneously transplanted U87MG xenograft (in words) [2]: significantly inhibited the growth

Compound: Cc1ccc(NC(=O)Nc2ccc(-c3nc(N4CCOCC4)c4cc(CN(C)C)cn4n3)cc2)cc1 [Compound I-9, 1-(4-(6-((dimethylamino)methyl)-4-morpholinopyrrolo[2,1-f][1,2,4]triazin-2-yl)phenyl)-3-(p-tolyl)urea]
IC50 [1]: 990 nM

Continued, in another order:

IC50 [1]: 74 nM
Compound: CN(C)Cc1cc2c(N3CCOCC3)nc(-c3cccc(CO)c3)nn2c1 [Compound I-24, (3-(6-((dimethylamino)methyl)-4-morpholinopyrrolo[2,1-f][1,2,4]triazin-2-yl)phenyl)methanol]
inhibitory activity on Rh30 cell proliferation (in words) [1]: tens of nanomolar

IC50 [1]: 3420 nM
Compound: CS(=O)(=O)N1CCN(Cc2cc3c(N4CC5CCC(C4)O5)nc(-c4cnc(N)cc4C(F)(F)F)nn3c2)CC1 [Compound I-29, 5-(4-(8-oxa-3-azabicyclo[3.2.1]octan-3-yl)-6-((4-(methylsulfonyl)piperazin-1-yl)methyl)pyrrolo[2,1-f][1,2,4]triazin-2-yl)-4-(trifluoromethyl)pyridin-2-amine]

IC50 [1]: 240 nM
Compound: CN(C)Cc1cc2c(N3CCOCC3)nc(-c3cccc(CNS(C)(=O)=O)c3)nn2c1 [Compound I-26, N-(3-(6-((dimethylamino)methyl)-4-morpholinopyrrolo[2,1-f][1,2,4]triazin-2-yl)benzyl)methanesulfonamide]

IC50 [1]: 39 nM
Compound: CN(C)Cc1cc2c(N3CCOCC3)nc(-c3cccc(CS(C)(=O)=O)c3)nn2c1 [Compound I-25, N,N-dimethyl-1-(2-(3-((methylsulfonyl)methyl)phenyl)-4-morpholinopyrrolo[2,1-f][1,2,4]triazin-6-yl)methanamine]
inhibitory activity on Rh30 cell proliferation (in words) [1]: tens of nanomolar

IC50 [1]: 500 nM
Compound: CN(C)Cc1cc2c(N3CCOCC3)nc(-c3ccc(NC(=O)Nc4ccc(C(=O)N(C)C)cc4)cc3)nn2c1 [Compound I-14, 4-(3-(4-(6-((dimethylamino)methyl)-4-morpholinopyrrolo[2,1-f][1,2,4]triazin-2-yl)phenyl)ureido)-N,N-dimethylbenzamide]

IC50 [1]: 530 nM
Compound: C[C@H]1COCCN1c1nc(-c2cnc(N)cc2C(F)(F)F)nn2cc(CN3CCN(S(C)(=O)=O)CC3)cc12 [Compound I-34, (S)-5-(4-(3-methylmorpholino)-6-((4-(methylsulfonyl)piperazin-1-yl)methyl)pyrrolo[2,1-f][1,2,4]triazin-2-yl)-4-(trifluoromethyl)pyridin-2-amine]
